This is an account of results in ChEMBL document CHEMBL1201862, “PubChem BioAssay data set” (2004).

The structures appear in SMILES notation.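 These data come from cells grown in 96-well plates and exposed to compound for 48 hours at five concentrations. GI50 marks 50% less growth.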 Activity calls are given as the source filed them. No stated cut-off is given here; in the data, active = GI50 up to about 1.1 µM and inactive = higher. Residues, ends and D or L forms follow the SMILES beside them. *: point of attachment. Boc = CC(C)(C)OC(=O)*; OBn = c1ccc(CO*)cc1 Where only a bound is given, the exact number is not on record here.

Test systems include KM12; NCI/ADR-RES; U-251; DU-145; HOP-62; MOLT-4; UACC-62; MCF7; CCRF-CEM; SR; HCT-15; SK-MEL-5; 786-0; M14; SK-MEL-28; NCI-H460; UO-31; Hs-578T; SF-539; RXF 393.
Experiment in all cases: growth of human tumour cells (NCI), 48 h

Consider `O=C(CC(C(=O)c1ccsc1)c1cccs1)c1ccsc1` (centres undefined), for which the GI50 was 31.5 µM (inactive) with KM12; 17.5 µM (inactive) in the assay on NCI/ADR-RES; > 100 µM (inactive) with U-251; 75.7 µM (inactive) in the assay with DU-145; > 100 µM (inactive) in the assay on HOP-62; 28.5 µM (inactive) in the assay on MOLT-4. The GI50 with UACC-62 was 31.5 µM (inactive); in the assay with MCF7, 39 µM (inactive); with CCRF-CEM, 15.2 µM (inactive); with SR, 27.4 µM (inactive); in the assay on HCT-15 it was 45.6 µM; in the assay with SK-MEL-5, 31.4 µM (inactive). Also, the GI50 in the assay on 786-0 was > 100 µM (inactive); with M14, 56 µM (inactive); with SK-MEL-28 it was 76.2 µM (inactive); in the assay with NCI-H460, 53.8 µM (inactive); with UO-31, 25.8 µM (inactive).
For `CC1=C(C(N)=O)C(c2ccncc2)C(C#N)C(=O)N1` (centres undefined), the GI50 in the assay on KM12, with U-251, with DU-145, in the assay with HOP-62, in the assay on Hs-578T and with SF-539 was > 100 µM (inactive) throughout. For the same compound, the GI50 in the assay on MOLT-4 was > 100 µM (inactive); in the assay on UACC-62, > 100 µM (inactive); in the assay with MCF7, > 100 µM (inactive); in the assay with CCRF-CEM, > 100 µM (inactive); in the assay with SR it was > 100 µM (inactive); in the assay on HCT-15, over 100 µM. For the same compound, the GI50 with SK-MEL-5, in the assay on 786-0, with M14, in the assay on RXF 393, in the assay on SK-MEL-28 and in the assay on NCI-H460 was > 100 µM (inactive) each time. Also, the GI50 with UO-31 is > 100 µM (inactive).
Turning to `CCOC(=O)C(NC(=O)CC)(Nc1ccc(F)cc1F)C(F)(F)F` (centres undefined), the GI50 in the assay with NCI/ADR-RES was > 100 µM (inactive); in the assay on U-251, > 100 µM (inactive); in the assay with Hs-578T it was 18.2 µM (inactive); in the assay on SF-539, > 100 µM (inactive); in the assay on MOLT-4 it was > 100 µM (inactive); in the assay on CCRF-CEM it was > 100 µM (inactive). In addition, the GI50 in the assay with SR is > 100 µM (inactive); with HCT-15, over 100 µM; in the assay with SK-MEL-5 it was > 100 µM (inactive); with 786-0, > 100 µM (inactive); in the assay on M14 it was > 100 µM (inactive); with RXF 393 it was > 100 µM (inactive). The values for the GI50 with SK-MEL-28 and in the assay on UO-31 were > 100 µM (inactive) and 11.8 µM (inactive), respectively.
Consider `CCCCCCCC(CC(=O)NC(CO)C(=O)NC(CO)CC(C)C)OC(=O)CC(CCCCCCC)OC(=O)CC(CCCCCCC)OC1OC(C)C(O)C(OC2OC(C)C(O)C(O)C2OC(C)=O)C1O` (centres undefined), for which the GI50 is 2.74 µM (inactive) in the assay on KM12; 7.03 µM (inactive) in the assay with U-251; 10.6 µM (inactive) with DU-145; 12.9 µM (inactive) in the assay with HOP-62; 4.51 µM (inactive) in the assay on Hs-578T; 11.1 µM (inactive) in the assay with SF-539. In addition, the GI50 with MOLT-4 was 2.54 µM (inactive); in the assay with UACC-62, 5.9 µM (inactive); in the assay with MCF7, 10.5 µM (inactive); with CCRF-CEM it was 3.15 µM (inactive); in the assay with SR it was 2.14 µM (inactive); with SK-MEL-5, 10.1 µM (inactive). Also, the GI50 in the assay with 786-0 was 5 µM (inactive); in the assay with M14 it was 5.69 µM (inactive); with RXF 393 it was 2.14 µM (inactive); in the assay on SK-MEL-28, 9.64 µM (inactive); with NCI-H460, 4.07 µM (inactive); in the assay with UO-31 it was 16.9 µM (inactive).
On to `C=C(Br)C[N+]12CN3CN(CN(C3)C1)C2`, for which the GI50 with KM12, in the assay with NCI/ADR-RES, in the assay on U-251, in the assay on DU-145, in the assay on HOP-62 and with Hs-578T was > 100 µM (inactive) each time. The GI50 is > 100 µM (inactive) in the assay with SF-539; > 100 µM (inactive) with MOLT-4; > 100 µM (inactive) in the assay with UACC-62; > 100 µM (inactive) in the assay with CCRF-CEM; > 100 µM (inactive) in the assay on SR; over 100 µM in the assay with HCT-15. The GI50 with SK-MEL-5, with 786-0, in the assay with M14, in the assay on RXF 393, with SK-MEL-28 and with NCI-H460 was > 100 µM (inactive) in each case. The GI50 with UO-31 was > 100 µM (inactive).
Take `CNC(=S)NNc1ncnc2c1c(-c1ccc(Cl)cc1)cn2-c1ccc(C)cc1`: the GI50 was 7.71 µM (inactive) in the assay on KM12; 11.6 µM (inactive) with NCI/ADR-RES; 11.1 µM (inactive) in the assay on U-251; 14.8 µM (inactive) with DU-145; 17.6 µM (inactive) in the assay on HOP-62; 20.9 µM (inactive) with Hs-578T. The GI50 with SF-539 was 16 µM (inactive); in the assay on MOLT-4 it was 3.85 µM (inactive); in the assay on UACC-62, 14.5 µM (inactive); in the assay on CCRF-CEM, 0.897 µM (active); with SR, 2.21 µM (inactive); in the assay with HCT-15, 8.39 µM. In addition, the GI50 in the assay on SK-MEL-5 was 5.89 µM (inactive); with 786-0 it was 9.18 µM (inactive); with M14, 12.6 µM (inactive); with RXF 393 it was 16.4 µM (inactive); in the assay on SK-MEL-28, 11.4 µM (inactive); in the assay on NCI-H460, 1.95 µM (inactive). For the same compound, in the assay with UO-31, the GI50 is 10.9 µM (inactive).
With `CCOC(=O)C(=Cc1ccccc1Cl)C(=O)OCC`, the GI50 in the assay on KM12 was 1.31 µM (inactive); in the assay with NCI/ADR-RES, 2 µM (inactive); in the assay on U-251, 1.63 µM (inactive); in the assay on DU-145, 1.92 µM (inactive); with HOP-62 it was 2.13 µM (inactive); in the assay on Hs-578T, 2.89 µM (inactive). Also, the GI50 was 2.1 µM (inactive) with SF-539; 2.52 µM (inactive) in the assay on MOLT-4; 1.69 µM (inactive) in the assay on UACC-62; 0.705 µM (active) in the assay with CCRF-CEM; 0.547 µM (active) in the assay with SR; 1.72 µM with HCT-15. Moreover, the GI50 with SK-MEL-5 is 2.06 µM (inactive); with 786-0, 1.34 µM (inactive); in the assay on M14, 1.5 µM (inactive); in the assay with RXF 393, 1.61 µM (inactive); in the assay on SK-MEL-28, 1.94 µM (inactive); in the assay on NCI-H460, 3.21 µM (inactive). Further, the GI50 in the assay on UO-31 was 1.71 µM (inactive).
Take `CCOC(=O)c1c(-c2cccc3ccccc23)c(C#N)c(=S)n(C2OC(COC(C)=O)C(OC(C)=O)C(OC(C)=O)C2OC(C)=O)c1C` (centres undefined): the GI50 with KM12, in the assay on NCI/ADR-RES, with U-251, in the assay with DU-145, in the assay on HOP-62 and in the assay on SF-539 was > 100 µM (inactive) each time. Further, the GI50 in the assay with MOLT-4 was > 100 µM (inactive); in the assay on UACC-62 it was > 100 µM (inactive); in the assay with MCF7, > 100 µM (inactive); in the assay on CCRF-CEM, > 100 µM (inactive); with SR, > 100 µM (inactive); with HCT-15, over 100 µM. Also, the GI50 in the assay on SK-MEL-5, in the assay with 786-0, with M14, in the assay on RXF 393, in the assay with SK-MEL-28 and in the assay with NCI-H460 was > 100 µM (inactive) each time. The GI50 in the assay with UO-31 is 1.32 µM (inactive).
For the compound `CC(C)=Nn1cnc(C(=N)C#N)c1N`, the GI50 in the assay with NCI/ADR-RES, in the assay on U-251, in the assay with DU-145, in the assay on HOP-62, in the assay on SF-539 and in the assay with MOLT-4 was > 100 µM (inactive) each time. Also, the GI50 in the assay with UACC-62 was > 100 µM (inactive); with MCF7 it was > 100 µM (inactive); with CCRF-CEM, > 100 µM (inactive); in the assay with SR it was > 100 µM (inactive); in the assay on HCT-15, over 100 µM; in the assay with SK-MEL-5 it was > 10 µM (inactive). In addition, the GI50 with 786-0, in the assay with M14, in the assay on RXF 393, with SK-MEL-28, with NCI-H460 and in the assay with UO-31 was > 100 µM (inactive) each time.
For `CC(=O)c1sc(Nc2ccc(Cl)c(Cl)c2)nc1C`, the GI50 with KM12 is 65.2 µM (inactive); in the assay on NCI/ADR-RES, > 100 µM (inactive); with U-251, > 100 µM (inactive); in the assay on DU-145, > 100 µM (inactive); in the assay with HOP-62, 69.2 µM (inactive); with SF-539, > 100 µM (inactive). The GI50 with MOLT-4 is 14.8 µM (inactive); in the assay on UACC-62, > 100 µM (inactive); with MCF7 it was 37.9 µM (inactive); with SR it was 60.3 µM (inactive); with HCT-15 it was 93.8 µM; with SK-MEL-5, > 100 µM (inactive). In addition, the GI50 was > 100 µM (inactive) in the assay on 786-0; 55.3 µM (inactive) in the assay with RXF 393; > 100 µM (inactive) in the assay on SK-MEL-28; > 100 µM (inactive) in the assay on NCI-H460; > 100 µM (inactive) in the assay with UO-31.
Regarding `CC(C)C(NC(=O)C(Cc1ccccc1)NC(=O)OC(C)(C)C)C(=O)NCC(=O)OCc1ccccc1` (stereo not drawn) (Boc-Phe-Val-Gly-OBn; configuration not given here), the GI50 was > 100 µM (inactive) with NCI/ADR-RES; 17.6 µM (inactive) in the assay with U-251; 14.3 µM (inactive) in the assay on DU-145; 19.2 µM (inactive) in the assay on HOP-62; 25.3 µM (inactive) in the assay with SF-539; 18.5 µM (inactive) in the assay with MOLT-4. Further, the GI50 is 16.9 µM (inactive) in the assay with UACC-62; > 10 µM (inactive) in the assay with MCF7; 20 µM (inactive) with CCRF-CEM; 12.9 µM with HCT-15; 17.9 µM (inactive) in the assay on 786-0; 20.9 µM (inactive) with M14. Further, the GI50 is 16.3 µM (inactive) in the assay on SK-MEL-28, 18.8 µM (inactive) in the assay with NCI-H460 and 21.7 µM (inactive) with UO-31.
